This note sets out measurements from ChEMBL document CHEMBL4043152, “Design, synthesis, and cytotoxic activity of novel 7-substituted camptothecin derivatives incorporating piperazinyl-sulfonylamidine moieties” (Bioorg Med Chem Lett, 2017).

What all share (type): functional, cell-based
One assay has as its system MDA-MB-231. Nature of the assay: Cytotoxicity against human MDA-MB-231 cells after 72 hrs by SRB assay. The settings on record: MDA-MB-231, 72 h.
The test system of another assay is MCF7. Nature of the assay: Cytotoxicity against human MCF7 cells after 72 hrs by SRB assay. As to conditions: MCF7, 72 h.
The next assay deals with A549. Nature of the assay: Cytotoxicity against human A549 cells after 72 hrs by SRB assay. As to conditions: A549, 72 h.
The nature of assay [1]: Cytotoxicity against human KBVIN cells after 72 hrs by SRB assay.
The subject of the next assay is KB. Nature of the assay: Cytotoxicity against human KB cells after 72 hrs by SRB assay.

Structures are written as SMILES.

Regarding `CC[C@@]1(O)C(=O)OCc2c1cc1n(c2=O)Cc2c-1nc1ccccc1c2CN1CCN(/C(Cc2ccc(F)cc2)=N\S(=O)(=O)c2cccnc2)CC1`, the IC50 with MDA-MB-231 is 6.31 µM; in the assay with MCF7, 6.05 µM; with A549, 2.59 µM; in assay [1], 5.82 µM; with KB, 6.76 µM.
For `CC[C@@]1(O)C(=O)OCc2c1cc1n(c2=O)Cc2c-1nc1ccccc1c2CN1CCN(/C(Cc2ccc(F)cc2)=N\S(=O)(=O)c2ccc(F)cc2)CC1`, the IC50 is 10.2 µM in the assay on MDA-MB-231; 8.85 µM in the assay on MCF7; 4.31 µM in the assay with A549; 1.81 µM in assay [1]; 10.1 µM in the assay on KB.
Taken in the same sequence, the figures for `CC[C@@]1(O)C(=O)OCc2c1cc1n(c2=O)Cc2c-1nc1ccccc1c2CN1CCN(/C(Cc2ccc(F)cc2)=N\S(=O)(=O)c2ccc([N+](=O)[O-])cc2)CC1` were 3.54 µM, 2.18 µM, 0.63 µM, 0.85 µM and 4.43 µM.
Turning to `CC[C@@]1(O)C(=O)OCc2c1cc1n(c2=O)Cc2c-1nc1ccccc1c2CN1CCN(/C(Cc2ccc(F)cc2)=N\S(=O)(=O)CC)CC1`, the IC50 in the assay on MDA-MB-231 was 2.51 µM; in the assay on MCF7, 1.6 µM; in the assay on A549, 0.5 µM; in assay [1] it was 0.97 µM; in the assay on KB, 0.33 µM.
For `CC[C@@]1(O)C(=O)OCc2c1cc1n(c2=O)Cc2c-1nc1ccccc1c2CN1CCN(/C(Cc2ccc(F)cc2)=N\S(=O)(=O)c2ccc(C)cc2)CC1`, the half-maximal inhibitory concentration (IC50) is 6.01 µM with MDA-MB-231; 7.04 µM with MCF7; 1.77 µM with A549; 2.77 µM in assay [1]; 1.07 µM in the assay with KB.
Taken in the same sequence, the figures for `CC[C@@]1(O)C(=O)OCc2c1cc1n(c2=O)Cc2c-1nc1ccccc1c2CN1CCN(/C(Cc2ccccc2)=N\S(=O)(=O)c2ccc3ccccc3c2)CC1` were 11.3 µM, 9.37 µM, 3.15 µM, 0.89 µM and 2.11 µM.
On to `CC[C@@]1(O)C(=O)OCc2c1cc1n(c2=O)Cc2c-1nc1ccccc1c2CN1CCN(/C(Cc2ccc(F)cc2)=N\S(=O)(=O)c2ccc3ccccc3c2)CC1`, for which the IC50 was found to be 5.41 µM in the assay on MDA-MB-231; 4.74 µM with MCF7; 0.6 µM with A549; 0.38 µM in assay [1]; 4.72 µM with KB.
For `CC[C@@]1(O)C(=O)OCc2c1cc1n(c2=O)Cc2c-1nc1ccccc1c2CN1CCN(/C(Cc2ccccc2)=N\S(=O)(=O)c2ccc(Cl)cc2)CC1`, in that order: 5.01 µM, 3.19 µM, 0.64 µM, 1.55 µM and 0.74 µM.
Consider `CC[C@@]1(O)C(=O)OCc2c1cc1n(c2=O)Cc2c-1nc1ccccc1c2CN1CCN(/C(Cc2ccc(OC)cc2)=N\S(=O)(=O)c2ccc(C)cc2)CC1`, for which the IC50 with MDA-MB-231 turned out to be 5.84 µM; in the assay on MCF7, 5.67 µM; in the assay on A549 it was 0.74 µM; in assay [1], 3.08 µM; in the assay with KB it was 0.83 µM.
For the compound `CC[C@@]1(O)C(=O)OCc2c1cc1n(c2=O)Cc2c-1nc1ccccc1c2CN1CCN(/C(Cc2ccc(OC)cc2)=N\S(=O)(=O)c2ccc([N+](=O)[O-])cc2)CC1`, the IC50 in the assay on MDA-MB-231 was 9.75 µM; in the assay with MCF7, 8.36 µM; in the assay with A549 it was 2.93 µM; in assay [1] it was 0.97 µM; in the assay with KB, 1.06 µM.
With `CC[C@@]1(O)C(=O)OCc2c1cc1n(c2=O)Cc2c-1nc1ccccc1c2CN1CCN(/C(Cc2ccccc2)=N\S(C)(=O)=O)CC1`, the 50% inhibitory concentration (IC50) with MDA-MB-231 was 1.57 µM; in the assay on MCF7 it was 1.59 µM; in the assay on A549, 0.65 µM; in assay [1] it was 3.82 µM; in the assay on KB, 0.13 µM.
Taken in the same sequence, the figures for `CC[C@@]1(O)C(=O)OCc2c1cc1n(c2=O)Cc2c-1nc1ccccc1c2CN1CCN(/C(Cc2ccccc2)=N\S(=O)(=O)c2ccccc2)CC1` were 4.41 µM, 2.25 µM, 0.65 µM, 1.77 µM and 0.63 µM.
In the case of `CC[C@@]1(O)C(=O)OCc2c1cc1n(c2=O)Cc2cc3c(CN(C)C)c(O)ccc3nc2-1` [TOPOTECAN], the IC50 stood at 0.28 µM in the assay on MCF7, 0.11 µM in the assay on A549 and 0.66 µM in assay [1].
Regarding `CC[C@@]1(O)C(=O)OCc2c1cc1n(c2=O)Cc2c-1nc1ccccc1c2CN1CCN(/C(Cc2ccccc2)=N\S(=O)(=O)c2cccnc2)CC1`, the concentration for half-maximal inhibition (IC50) in the assay with MDA-MB-231 is 3.84 µM; with MCF7, 3.4 µM; with A549, 0.76 µM; in assay [1], 2.09 µM; with KB it was 0.72 µM.
Taken in the same sequence, the figures for `CC[C@@]1(O)C(=O)OCc2c1cc1n(c2=O)Cc2c-1nc1ccccc1c2CN1CCN(/C(Cc2ccc(OC)cc2)=N\S(=O)(=O)c2cccnc2)CC1` were 4.96 µM, 4.22 µM, 0.8 µM, 2.38 µM and 0.88 µM.
In the case of `CC[C@@]1(O)C(=O)OCc2c1cc1n(c2=O)Cc2c-1nc1ccccc1c2CN1CCN(/C(Cc2ccccc2)=N\S(=O)(=O)CC)CC1`, the IC50 in the assay with MDA-MB-231 turned out to be 3.5 µM; in the assay on MCF7, 1.9 µM; with A549, 0.73 µM; in assay [1], 4.29 µM; in the assay with KB it was 0.49 µM.
Taken in the same sequence, the figures for `CC[C@@]1(O)C(=O)OCc2c1cc1n(c2=O)Cc2c-1nc1ccccc1c2CN1CCN(/C(Cc2ccc(OC)cc2)=N\S(=O)(=O)CC)CC1` were 3.81 µM, 2.9 µM, 0.71 µM, 2.73 µM and 0.47 µM.
As for `CCc1c2c(nc3ccc(OC(=O)N4CCC(N5CCCCC5)CC4)cc13)-c1cc3c(c(=O)n1C2)COC(=O)[C@]3(O)CC` [IRINOTECAN], the IC50 was 11.3 µM in the assay with MCF7, 8.31 µM in the assay on A549 and > 20 µM in assay [1].
On to `CC[C@@]1(O)C(=O)OCc2c1cc1n(c2=O)Cc2c-1nc1ccccc1c2CN1CCN(/C(Cc2ccccc2)=N\S(=O)(=O)c2cccs2)CC1`, for which the IC50 stood at 3.99 µM in the assay on MDA-MB-231; 1.25 µM with MCF7; 0.65 µM with A549; 1.27 µM in assay [1]; 0.59 µM in the assay with KB.
As to `CC[C@@]1(O)C(=O)OCc2c1cc1n(c2=O)Cc2c-1nc1ccccc1c2CN1CCN(/C(Cc2ccc(OC)cc2)=N\S(=O)(=O)c2ccc3ccccc3c2)CC1`, the IC50 in the assay with MDA-MB-231 stood at 9.36 µM; in the assay on MCF7 it was 6.56 µM; in the assay with A549 it was 0.74 µM; in assay [1], 3.66 µM; in the assay on KB, 0.84 µM.
